From ChEMBL document CHEMBL4002627, “Quinolidene based monocarbonyl curcumin analogues as promising antimycobacterial agents: Synthesis and molecular docking study” (Bioorg Med Chem Lett, 2017)
Converted amounts (≈) assume the structure as drawn.

Columns and labels:
[1] = test system: Mycobacterium tuberculosis; test: Antimycobacterial activity against dormant state of Mycobacterium tuberculosis H37Ra by two fold dilution method; format: functional
[2] = test system: Mycobacterium tuberculosis; test: Antimycobacterial activity against dormant state of Mycobacterium tuberculosis H37Ra assessed as growth inhibition at 30 ug/ml after 12 days by XTT reduction menadione assay relative to control; format: functional; conditions: 288 h, read-out: GI
[3] = test system: Mycobacterium tuberculosis; test: Antimycobacterial activity against dormant state of Mycobacterium tuberculosis H37Ra assessed as growth inhibition at 10 ug/ml after 12 days by XTT reduction menadione assay relative to control; format: functional; conditions: 288 h, read-out: GI
[4] = test system: Mycobacterium tuberculosis; test: Antimycobacterial activity against dormant state of Mycobacterium tuberculosis H37Ra assessed as growth inhibition at 3 ug/ml after 12 days by XTT reduction menadione assay relative to control; format: functional; conditions: 288 h, read-out: GI
[5] = Cytotoxicity against human MCF7 cells assessed as growth inhibition at 30 ug/ml after 48 hrs by MTT assay relative to control; format: cell-based; conditions: read-out: GI
[6] = Cytotoxicity against human MCF7 cells assessed as growth inhibition at 10 ug/ml after 48 hrs by MTT assay relative to control; format: cell-based; conditions: read-out: GI
[7] = Cytotoxicity against human MCF7 cells assessed as growth inhibition at 3 ug/ml after 48 hrs by MTT assay relative to control; format: cell-based; conditions: read-out: GI
[8] = Cytotoxicity against human A549 cells assessed as growth inhibition at 30 ug/ml after 48 hrs by MTT assay relative to control; format: cell-based; conditions: read-out: GI
[9] = Cytotoxicity against human A549 cells assessed as growth inhibition at 10 ug/ml after 48 hrs by MTT assay relative to control; format: cell-based; conditions: read-out: GI
[10] = Cytotoxicity against human A549 cells assessed as growth inhibition at 3 ug/ml after 48 hrs by MTT assay relative to control; format: cell-based; conditions: read-out: GI
[11] = Cytotoxicity against human HCT116 cells assessed as growth inhibition at 30 ug/ml after 48 hrs by MTT assay relative to control; format: cell-based, HCT-116; conditions: read-out: GI
[12] = Cytotoxicity against human HCT116 cells assessed as growth inhibition at 10 ug/ml after 48 hrs by MTT assay relative to control; format: cell-based, HCT-116; conditions: read-out: GI
[13] = Cytotoxicity against human HCT116 cells assessed as growth inhibition at 3 ug/ml after 48 hrs by MTT assay relative to control; format: cell-based, HCT-116; conditions: read-out: GI
[14] = (§1) Cytotoxicity against human MCF7 cells assessed as growth inhibition after 48 hrs by MTT assay; format: cell-based; conditions: MCF7 cells
[15] = test system: MCF7; test: as §1; format: cell-based; conditions: mcf7, 48 h
[16] = (§2) Cytotoxicity against human A549 cells assessed as growth inhibition after 48 hrs by MTT assay; format: cell-based; conditions: A549 cells
[17] = test system: A549; test: as §2; format: cell-based; conditions: a549, 48 h
[18] = (§3) Cytotoxicity against human HCT116 cells assessed as growth inhibition after 48 hrs by MTT assay; format: cell-based, HCT-116; conditions: HCT116 cells
[19] = test system: HCT-116; test: as §3; format: cell-based; conditions: hct-116, 48 h
[20] = Selectivity index, ratio of GI90 for human MCF7 cells to MIC90 for dormant state of Mycobacterium tuberculosis H37Ra; format: toxicity; conditions: read-out: Selectivity Index
[21] = Selectivity index, ratio of GI90 for human A549 cells to MIC90 for dormant state of Mycobacterium tuberculosis H37Ra; format: toxicity; conditions: read-out: Selectivity Index
[22] = Selectivity index, ratio of GI90 for human HCT116 cells to MIC90 for dormant state of Mycobacterium tuberculosis H37Ra; format: toxicity; conditions: read-out: Selectivity Index
[23] = Selectivity index, ratio of GI90 for human MCF7 cells to MIC90 for dormant state of dormant state of Mycobacterium bovis BCG; format: toxicity; conditions: read-out: Selectivity Index
[24] = Selectivity index, ratio of GI90 for human A549 cells to MIC90 for dormant state of dormant state of Mycobacterium bovis BCG; format: toxicity; conditions: read-out: Selectivity Index
[25] = Selectivity index, ratio of GI90 for human HCT116 cells to MIC90 for dormant state of dormant state of Mycobacterium bovis BCG; format: toxicity; conditions: read-out: Selectivity Index
[26] = test system: Escherichia coli; test: Antibacterial activity against Escherichia coli ATCC […] after 8 hrs; format: functional
[27] = test system: Pseudomonas fluorescens; test: Antibacterial activity against Pseudomonas fluorescens ATCC 13525 after 8 hrs; format: functional; conditions: ATCC 13525, 8 h
[28] = test system: Staphylococcus aureus; test: Antibacterial activity against Staphylococcus aureus ATCC 29213 after 12 hrs; format: functional; conditions: ATCC 29213, 12 h
[29] = test system: Bacillus subtilis; test: Antibacterial activity against Bacillus subtilis ATCC 23857 after 12 hrs; format: functional; conditions: ATCC 23857, 12 h

SMILES	MIC50 [1] [µg/mL]	MIC90 [1] [µg/mL]	inhibition of growth at 30 µg/mL [2] [%]	inhibition of growth at 10 µg/mL [3] [%]	inhibition of growth at 3 µg/mL [4] [%]	inhibition at 48 h, 30 ug/ml [5] [%]	inhibition at 48 h, 10 ug/ml [6] [%]	inhibition at 48 h, 3 ug/ml [7] [%]	inhibition at 48 h, 30 ug/ml [8] [%]	inhibition at 48 h, 10 ug/ml [9] [%]	inhibition at 48 h, 3 ug/ml [10] [%]	inhibition at 48 h, 30 ug/ml [11] [%]	inhibition at 48 h, 10 ug/ml [12] [%]	inhibition at 48 h, 3 ug/ml [13] [%]	GI50 at 48 h [14] [µg/mL]	GI90 [15] [µg/mL]	GI50 at 48 h [16] [µg/mL]	GI90 [17] [µg/mL]	GI50 at 48 h [18] [µg/mL]	GI90 [19] [µg/mL]	other results
COc1ccc2cc(/C=C3\CNC/C(=C\c4cc5ccc(OC)cc5nc4Cl)C3=O)c(Cl)nc2c1	2.8 (≈ 5.53 µM)	> 30	65.6	54.2	50.9	60.9	52.1	28	36.3	29.8	3.8	67.7	50.9	26.9	> 100	> 100	> 100	> 100	> 100	> 100	selectivity ratio [20]: > 3; selectivity ratio [21]: > 3; selectivity ratio [22]: > 3; selectivity ratio [23]: > 37; selectivity ratio [24]: > 37; selectivity ratio [25]: > 37; MIC50 [26]: > 30 µg/mL; MIC90 [26]: > 30 µg/mL; MIC50 [27]: > 30 µg/mL; MIC90 [27]: > 30 µg/mL; MIC50 [28]: > 30 µg/mL; MIC90 [28]: > 30 µg/mL; MIC50 [29]: > 30 µg/mL; MIC90 [29]: > 30 µg/mL
CN1C/C(=C\c2cc3ccccc3nc2Cl)C(=O)/C(=C/c2cc3ccccc3nc2Cl)C1	6.7 (≈ 14.6 µM)	26.5 (≈ 57.6 µM)	98	51.9	15.6	35.1	24.3	11.4	-16.9	0	-14.6	-20.1	-15.2	-0.3	> 100	> 100	> 100	> 100	> 100	> 100	selectivity ratio [20]: > 3; selectivity ratio [21]: > 3; selectivity ratio [22]: > 3; selectivity ratio [23]: > 13; selectivity ratio [24]: > 13; selectivity ratio [25]: > 13; MIC50 [26]: > 30 µg/mL; MIC90 [26]: > 30 µg/mL; MIC50 [27]: > 30 µg/mL; MIC90 [27]: > 30 µg/mL; MIC50 [28]: > 30 µg/mL; MIC90 [28]: > 30 µg/mL; MIC50 [29]: > 30 µg/mL; MIC90 [29]: > 30 µg/mL
